Measured values from ChEMBL document CHEMBL1158887, “Novel chromone derivatives from the fungus Aspergillus versicolor isolated from the marine sponge Xestospongia exigua” (J Nat Prod, 2003).
The source made the active and inactive calls. The calls are words filed in the database; no cut-off is given here.

What was measured:
Format in all cases: functional, organism-based
[1] = system: Escherichia coli; test: Antimicrobial activity against Escherichia coli DMS 10290 at 5 and 10 ug after 24 hrs by agar diffusion method
[2] = system: Saccharomyces cerevisiae; test: Antimicrobial activity against Saccharomyces cerevisiae DMS 1333 at 5 and 10 ug after 24 hrs by agar diffusion method
[3] = system: Bacillus subtilis; test: Antimicrobial activity against Bacillus subtilis DMS 2109 at 5 and 10 ug after 24 hrs by agar diffusion method

| SMILES | Activity [1] | Activity [2] | Activity [3] |
| --- | --- | --- | --- |
| COC1(C)Cc2ccc3c(=O)c(C)c(C)oc3c2CO1 (stereo not drawn) | inactive | inactive | inactive |
| COC1OC(C)=Cc2ccc3c(=O)c(C)c(C)oc3c21 (stereo not drawn) | inactive | inactive | inactive |
| Cc1cc2ccc3c(=O)c(C)c(C)oc3c2cn1 | inactive | inactive | – |
